Patent US6911432B2, “Drugs, foods or drinks with the use of algae-derived physiologically active substances” (priority 1997, dated 2005)

Key:
HL-60 cells [1] = assay: antiproliferation assay, MTT method, absorbance at 590 nm; type: cell-based, human; details: HL-60
RAW264.7 = assay: antiproliferation assay, MTT method; type: cell-based, mouse
Description: (§1) Each fraction was sterilized by filtration and its 10 μl portion was placed in a well of a 96 well microtiter plate. […] The cell morphology was observed under an optical microscope. […] The absorbance at 590 nm was measured to determine a cell proliferation rate. (2) A 50 mM solution of agarobiose, agarotetraose or agarohexaose obtained in Example 3-(1) was sterilized by filtration and diluted 2-, 4-, 8-, 16-, 32-, 64- and 128-folds with sterilized water. […] [table] The number in Table 3 represents the dilution rate of the dilution added to the group whose absorbance at 590 nm was less than one-half of that of the control group to which water was added. […] Then, for agarobiose, agarotetraose and agarohexaose, the concentrations required for 50% proliferation inhibitory rate (IC50) are calculated based on the change in the absorbance at 590 nm, and are shown in Table 4.

A549 = assay: antiproliferation assay, MTT method; type: cell-based, human
Description: as §1

HCT116 = assay: antiproliferation assay, MTT method; type: cell-based, human
Description: as §1

HT-29 = assay: antiproliferation assay, MTT method; type: cell-based, human
Description: as §1

HeLa S3 = assay: antiproliferation assay, MTT method; type: cell-based, human
Description: as §1

HepG2 = assay: antiproliferation assay, MTT method; type: cell-based, human
Description: as §1

MCF7 = assay: antiproliferation assay, MTT method; type: cell-based, human
Description: as §1

MKN45 = assay: antiproliferation assay, MTT method; type: cell-based, human
Description: as §1

RPMI1788 = assay: antiproliferation assay, MTT method; type: cell-based, human
Description: as §1

T-47D = assay: antiproliferation assay, MTT method; type: cell-based, human
Description: as §1

T24 = assay: antiproliferation assay, MTT method; type: cell-based, human
Description: as §1

WiDr = assay: antiproliferation assay, MTT method; type: cell-based, human
Description: as §1

A-172 = assay: antiproliferation assay, MTT method; type: cell-based
Description: as §1

HT-1080 = assay: antiproliferation assay, MTT method; type: cell-based
Description: as §1

HL-60 cells [2] = assay: viable cell count with Trypan Blue under a microscope; type: cell-based, human; details: final concentration 250 μM or 125 μM
Description: Agarobiose, agarotetraose, agarohexaose and agarooctaose (hereinafter, sometimes, these oligosuccharaides are referred to as agarooligosaccharides) obtained in Example 5 were dissolved in water at a concentration of 2.5 mM or 1.25 mM separately, and were sterilized by filtration. HL-60 cells were suspended in RPMI 1640 medium containing 10% fetal bovine serum at a concentration of 2.5×10^5 cells/4.5 ml and to this suspension was added 0.5 ml of each of the oligosaccharide solutions. The resultant mixture were incubated with 5% CO2 at 37° C. for 24 hours or 48 hours. A part of the cell culture was taken up, followed by addition of Trypan Blue thereto and observing under a microscope to count the number of viable cells.
That is, FIG. 14 illustrates the relation between the incubation time and the number of viable cells when HL-60 cells were cultured with addition of one of the oligosaccharides at the final concentration of 250 μM. FIG. 15 illustrates the relation between the incubation time and the number of viable cells when HL-60 cells were cultured with addition of one of the oligosaccharides at the final concentration of 125 μM. In FIGS. 14 and 15, the horizontal axes represent the incubation time (hrs.) and the vertical axes represent the number of viable cells (× 10^5/5 ml). The closed circle (●) represents the addition of water (control), the open diamond (⋄) represents the addition of agarobiose, the open circle (◯) represents the addition of agarotetraose, the open triangle (Δ) represents the addition of agarohexaose and the open square (□) represents the addition of agarooctaose.

iNOS = iNOS expression by western blotting and RT-PCR; type: cell-based; details: protein level by western blotting, messenger RNA level by RT-PCR
Description: The confirmation was carried out at protein level by western blotting and at messenger RNA level by RT-PCR. That is, the compounds used in the present invention are useful for treating and preventing diseases that require inhibition of NO production by inhibiting expression of iNOS which is overexpressed by various factors to produce excess NO.

[3] = read-out: IC50 (concentration required for 50% proliferation inhibitory rate)
[4] = dilution rate 1 corresponds to 5 mM in medium

SMILES: OC[C@H]1O[C@@H](O[C@H]2[C@H]3OC[C@@H]2O[C@@H](O[C@H]2[C@@H](O)[C@@H](CO)O[C@@H](O[C@H]4[C@H]5OC[C@@H]4O[C@@H](O[C@H]4[C@@H](O)[C@@H](CO)O[C@@H](O[C@H]6[C@H]7OC[C@@H]6OC(O)[C@H]7O)[C@@H]4O)[C@H]5O)[C@@H]2O)[C@H]3O)[C@H](O)[C@@H](O)[C@H]1O (mixture of isomers) [Agarohexaose, agarohexaose]
- dilution rate of the dilution added to the group whose absorbance at 590 nm was less than one-half of that of the control group (HL-60 cells [1]; 50 mM solution diluted 2- to 128-fold, dilution rate 1 corresponds to 5 mM in the cell culture medium): 64
- IC50 (HL-60 cells [1]; [3]): 78 µM
- dilution rate of the dilution added to the group whose absorbance at 590 nm was less than one-half of that of the control group (RAW264.7; [4]): 32
- IC50 (RAW264.7; [3]): 109 µM
- dilution rate of the dilution added to the group whose absorbance at 590 nm was less than one-half of that of the control group (A549; [4]): 16
- IC50 (A549; [3]): 279 µM
- dilution rate of the dilution added to the group whose absorbance at 590 nm was less than one-half of that of the control group (HCT116; [4]): 32
- IC50 (HCT116; [3]): 136 µM
- dilution rate of the dilution added to the group whose absorbance at 590 nm was less than one-half of that of the control group (HT-29; [4]): 32
- IC50 (HT-29; [3]): 144 µM
- dilution rate of the dilution added to the group whose absorbance at 590 nm was less than one-half of that of the control group (HeLa S3; [4]): 16
- IC50 (HeLa S3; [3]): 334 µM
- dilution rate of the dilution added to the group whose absorbance at 590 nm was less than one-half of that of the control group (HepG2; [4]): 16
- IC50 (HepG2; [3]): 430 µM
- dilution rate of the dilution added to the group whose absorbance at 590 nm was less than one-half of that of the control group (MCF7; [4]): 16
- IC50 (MCF7; [3]): 238 µM
- dilution rate of the dilution added to the group whose absorbance at 590 nm was less than one-half of that of the control group (MKN45; [4]): 16
- IC50 (MKN45; [3]): 166 µM
- dilution rate of the dilution added to the group whose absorbance at 590 nm was less than one-half of that of the control group (RPMI1788; [4]): 128
- IC50 (RPMI1788; [3]): 22 µM
- dilution rate of the dilution added to the group whose absorbance at 590 nm was less than one-half of that of the control group (T-47D; [4]): 16
- IC50 (T-47D; [3]): 158 µM
- dilution rate of the dilution added to the group whose absorbance at 590 nm was less than one-half of that of the control group (T24; [4]): 8
- IC50 (T24; [3]): 365 µM
- dilution rate of the dilution added to the group whose absorbance at 590 nm was less than one-half of that of the control group (WiDr; [4]): 16
- IC50 (WiDr; [3]): 334 µM
- dilution rate of the dilution added to the group whose absorbance at 590 nm was less than one-half of that of the control group (A-172; [4]): 16
- IC50 (A-172; [3]): 151 µM
- dilution rate of the dilution added to the group whose absorbance at 590 nm was less than one-half of that of the control group (HT-1080; [4]): 16
- IC50 (HT-1080; [3]): 185 µM
- apoptosis corpuscles (HL-60 cells [2]): apoptosis corpuscles were observed
- number of viable cells as compared with the group to which water was added (HL-60 cells [2]; 24 hours or 48 hours): decreased
- inhibition of iNOS expression (iNOS): inhibit this iNOS expression
